Measurements published in paper PMC11257039, “VCP activator reverses nuclear proteostasis defects and enhances TDP-43 aggregate clearance in multisystem proteinopathy models” (The Journal of Clinical Investigation, 2024).
pEC50: −log10 of the molar value. “And” between values parts separate entries of the source, which are not always exact repeats. Identical values can stand only once.

How the values were obtained:
[1] = molecular target: T1, WT VCP + Ufd1/Nploc4 (Mus musculus, UniProt Q01853); assay: Kinase-Glo ATPase assay, WT VCP with UFD1/NPLOC4 (UN); assay type: biochemical; settings: for ATP consumed: WT VCP with UN
T1 construct: in the full-length recombinant VCP; His (N); made in house; host or cells: E. coli (VCP: BL21-CodonPlus (DE3)-RIL; UFD1 and NPLOC4: E. coli (DE3), purified by the MD Anderson core)
T1 sequence (Q01853 whole entry): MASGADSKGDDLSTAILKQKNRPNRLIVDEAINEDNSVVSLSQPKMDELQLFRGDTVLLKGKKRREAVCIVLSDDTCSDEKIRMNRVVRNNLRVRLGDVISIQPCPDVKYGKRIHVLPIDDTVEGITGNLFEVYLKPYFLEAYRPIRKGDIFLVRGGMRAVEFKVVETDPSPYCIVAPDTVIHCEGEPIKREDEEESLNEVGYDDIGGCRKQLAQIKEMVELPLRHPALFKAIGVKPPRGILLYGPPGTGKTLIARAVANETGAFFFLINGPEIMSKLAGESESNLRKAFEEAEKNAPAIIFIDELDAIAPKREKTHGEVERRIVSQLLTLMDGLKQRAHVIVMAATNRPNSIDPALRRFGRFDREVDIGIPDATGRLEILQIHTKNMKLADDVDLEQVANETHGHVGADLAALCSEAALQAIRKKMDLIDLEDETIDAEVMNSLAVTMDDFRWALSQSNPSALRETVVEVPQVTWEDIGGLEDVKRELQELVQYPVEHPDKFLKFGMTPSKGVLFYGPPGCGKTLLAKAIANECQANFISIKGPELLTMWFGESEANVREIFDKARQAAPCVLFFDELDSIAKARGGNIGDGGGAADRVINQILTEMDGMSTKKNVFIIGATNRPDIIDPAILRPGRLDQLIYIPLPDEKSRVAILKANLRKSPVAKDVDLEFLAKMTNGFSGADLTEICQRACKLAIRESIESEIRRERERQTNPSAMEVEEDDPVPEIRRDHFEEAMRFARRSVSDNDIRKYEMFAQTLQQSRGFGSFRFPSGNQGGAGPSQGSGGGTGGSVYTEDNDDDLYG
T1 sequence (Q92890 whole entry partner): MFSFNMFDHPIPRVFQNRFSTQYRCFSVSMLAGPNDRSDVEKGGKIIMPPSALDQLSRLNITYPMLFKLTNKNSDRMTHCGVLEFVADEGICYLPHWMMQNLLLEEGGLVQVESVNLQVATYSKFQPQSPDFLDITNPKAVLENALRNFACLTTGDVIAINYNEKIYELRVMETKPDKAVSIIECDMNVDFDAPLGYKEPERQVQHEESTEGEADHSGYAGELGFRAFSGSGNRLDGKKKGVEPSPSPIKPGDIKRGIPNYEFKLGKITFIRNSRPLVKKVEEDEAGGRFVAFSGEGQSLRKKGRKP
T1 sequence (Q8TAT6 whole entry partner): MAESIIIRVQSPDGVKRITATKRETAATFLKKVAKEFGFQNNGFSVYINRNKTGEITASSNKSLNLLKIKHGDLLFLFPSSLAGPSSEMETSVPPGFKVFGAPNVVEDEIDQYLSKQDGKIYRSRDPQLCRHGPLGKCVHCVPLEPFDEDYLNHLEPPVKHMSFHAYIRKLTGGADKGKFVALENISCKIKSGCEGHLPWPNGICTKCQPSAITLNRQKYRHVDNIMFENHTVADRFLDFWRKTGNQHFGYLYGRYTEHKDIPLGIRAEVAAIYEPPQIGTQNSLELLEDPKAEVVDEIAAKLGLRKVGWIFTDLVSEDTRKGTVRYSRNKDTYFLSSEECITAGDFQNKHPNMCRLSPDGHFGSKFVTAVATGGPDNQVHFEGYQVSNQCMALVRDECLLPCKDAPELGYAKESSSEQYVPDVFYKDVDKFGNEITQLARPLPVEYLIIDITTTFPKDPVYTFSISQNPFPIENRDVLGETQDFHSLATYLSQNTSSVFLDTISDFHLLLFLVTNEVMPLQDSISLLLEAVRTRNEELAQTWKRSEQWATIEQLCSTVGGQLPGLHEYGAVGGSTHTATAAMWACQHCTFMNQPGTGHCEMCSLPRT
Experimental: (§1) Experiments with varied activator concentration and screening were measured using the Kinase-Glo Luminescent Kinase Assay (Promega). Reactions were incubated at 25°C for 1 hour then reduced to 4°C in a thermocycler consisting of 50 nM of recombinant VCP with or without 50 nM UFD1/NPLOC4 in 50 uL ATPase buffer (25 mM HEPES, pH 7.5, 100 mM NaCl, 10 mM MgCl2) at 2% DMSO with 62.5 μM ATP and a range of activator concentrations (Gibco, Sigma-Aldrich). Equal volumes of reaction and Kinase-Glo reagent were incubated for 20 minutes at room temperature in a 96 well white flat bottom plate (Corning). Luminescence was measured in a microplate reader (Spark 20M, Tecan).
(§2) Experiments with varied compound concentration were fit to a 3-parameter dose curve with asymmetric profile likelihood 95% confidence intervals in GraphPad Prism 9 (GraphPad). Experiments with varied ATP concentration were fit to a Michaelis-Menten model with asymmetric profile likelihood 95% confidence intervals. Significance was determined for experiments with fixed compound or fixed ATP concentration using a linear mixed-effects model.

[2] = molecular target: T2, recombinant WT VCP (Mus musculus, UniProt Q01853); assay: Kinase-Glo ATPase assay, recombinant WT VCP; assay type: biochemical; settings: for ATP consumed: WT VCP no UN
T2 construct: in the full-length recombinant VCP; His (N); made in house; host or cells: Escherichia coli BL21-CodonPlus (DE3)-RIL
T2 sequence (Q01853 whole entry): as the sequence (Q01853 whole entry) above
Experimental: as §1, §2

[3] = system: luciferase; assay: Luciferase counter assay: Kinase-Glo with 62.5 μM ATP without recombinant VCP; assay type: biochemical; settings: for measured ATP consumed (nmol) without VCP: replicate values
Experimental: as §1
(A-D) Measured ATP as determined by a Kinase-Glo assay of 62.5μM ATP in the presence of increasing concentrations of compound without recombinant VCP present. (for all panels: n=3 with 4 technical replicates per experiment, points are expressed as beta ± SE, linear mixed effects model, P>0.05 for each […]
(§3) (1 picture or pasted object on this page, not shown here)

[4] = molecular target: T3, R155H VCP (Mus musculus, UniProt Q01853, R155H); assay: MESG-PNP ATPase assay, recombinant R155H VCP; assay type: biochemical; settings: VCP Mutation R155H; replicate values
T3 construct: in the full-length recombinant VCP; His (N); made in house; host or cells: Escherichia coli BL21-CodonPlus (DE3)-RIL
T3 sequence (Q01853 whole entry R155H): as the sequence (Q01853 whole entry) above, with R155H counted along it
Experimental: (§4) All other experiments were performed using the EnzCheck phosphatase assay kit (Molecular Probes). ATPase activity was measured in a 96-well flat bottom plate (Thermo Fisher Scientific). 50 nM VCP was incubated in 100 μL ATPase buffer with 2% DMSO with 25 μM compound and various ATP concentrations. The absorbance at 360 ± 5 nm was measured for more than 15 minutes at 25°C. Phosphate release was quantified based on a phosphate standard curve performed on the same plate. Initial enzyme velocity was determined by fitting the linear portion of the data to a linear regression model.
(§5) Figure S8. VCP activators variable effect on ATPase activity of MSP associated mutations in recombinant VCP. ATPase activity of 50 nM recombinant VCP protein was measured using an MESG-PNP assay upon treatment with 25 μM compound versus 2% DMSO control at 1mM ATP for WT (also shown in Fig. 5c), A232E, R155H, and R159H (n=3 with 3 technical replicated per experiment; points are expressed as beta ± SE, linear effects model: *P<0.05,**P<0.01; ***P<0.001; ****P<0.0001).

[5] = molecular target: T2, recombinant WT VCP; assay: MESG-PNP (EnzCheck) phosphate release ATPase assay, WT VCP; assay type: biochemical; settings: for ATPase activity v0/ET: 25 μM compound, replicate experiments
Experimental: as §4, §2

[6] = molecular target: T4, R159H VCP (Mus musculus, UniProt Q01853, R159H); assay: MESG-PNP ATPase assay, recombinant R159H VCP; assay type: biochemical; settings: VCP Mutation R159H; replicate values
T4 construct: in the full-length recombinant VCP; His (N); made in house; host or cells: Escherichia coli BL21-CodonPlus (DE3)-RIL
T4 sequence (Q01853 whole entry R159H): as the sequence (Q01853 whole entry) above, with R159H counted along it
Experimental: as §4, §5

[7] = molecular target: T5, A232E VCP (Mus musculus, UniProt Q01853, A232E); assay: MESG-PNP ATPase assay, recombinant A232E VCP; assay type: biochemical; settings: VCP Mutation A232E; replicate values
T5 construct: in the full-length recombinant VCP; His (N); made in house; host or cells: Escherichia coli BL21-CodonPlus (DE3)-RIL
T5 sequence (Q01853 whole entry A232E): as the sequence (Q01853 whole entry) above, with A232E counted along it
Experimental: as §4, §5

[8] = system: WT HeLa cells expressing GFP-TDP-4FL; assay: Flow cytometry of GFP-TDP-4FL integrated fluorescence, WT HeLa; assay type: cell-based; settings: for Integrated Fluorescence WT (Normalized to CHX): replicate values
Experimental: Drug treatments were performed on neurons 7 days after lentiviral transduction and 14 days after neuronal induction. HeLa cells were collected using trypsin and pelleted at 1000g for 3 minutes. Cell pellets were resuspended in colorless DMEM (Invitrogen) supplemented with 2% FBS and filtered through a BD tube with cell strainer (BD Biosciences) for flow cytometry analysis on LSR II (BD Biosciences). Data analysis was performed on FlowJo v10 software. Integrated fluorescence intensity was determined by multiplying percent positive GFP and GFP median fluorescence values.

[9] = system: WT HeLa cells expressing TDP-4FL; assay: Immunofluorescence of TDP-4FL inclusion morphology, WT HeLa; assay type: cell-based; settings: for TDP-4FL inclusion size and morphology upon proteasome inhibition: 4 μM MG132, 1 μM ixazomib or 1 μM epoxomicin, 3 or 6 hours
Experimental: HeLa Cells were plated onto glass coverslips and transfected with TDP-4FL using Fugene HD for 24 hours. Cells were fixed with 4% paraformaldehyde (Electron Microscopy Sciences), permeabilized with 0.1% Triton-X (Thermo Fisher Scientific), and blocked with 2% FBS DPBS. Primary antibodies were diluted in 2% FBS DPBS. Cells were stained with 300 nM DAPI, and coverslips were mounted onto glass slides using ProLong Glass Antifade Mountant (Thermo Fisher Scientific). Confocal images were obtained using a Leica TCS SPE laser scanning confocal microscope.
(A) High power magnification immunofluorescence confocal images of HeLa cells expressing TDP-4FL stained for myc-TDP (green) Scale bar, 5 µm. […]
(C) Representative confocal microscopy immunofluorescence confocal images of HeLa cells […]
yellow represent cells that were categorized as anisosome morphology. Nuclei outline in white represent cells that were categorized as aggregate morphology. Cells with approximately more than 50% anisosome inclusions were categorized as anisosome morphology whereas cells with approximately more than 50% aggregate-like inclusions were categorized as aggregate morphology. Binucleate cells were excluded from the total counts. Scale bar, 10 µm.
as §3

## Clc1ccc2[nH]c3c(N4CCC5(CC4)OCCO5)ncnc3c2c1 [UP158]
[1]
  change in EC50 with UN compared to without UN: significantly increased
  change in maximum percent activity with UN compared to without UN: stayed the same
[1]; WT VCP + Ufd1/Nploc4, 1:1 molar ratio
  pEC50: 4.84
[1]; 1.56 μM compound
  ATP consumed: 1.283 nmol and 1.271 nmol and 1.261 nmol
[1]; 3.13 μM compound
  ATP consumed: 1.368 nmol and 1.194 nmol and 1.381 nmol
[1]; 6.25 μM compound
  ATP consumed: 1.593 nmol and 1.386 nmol and 1.366 nmol
[1]; 12.5 μM compound
  ATP consumed: 1.674 nmol and 1.527 nmol and 1.645 nmol
[1]; 25 μM compound
  ATP consumed: 1.721 nmol and 1.705 nmol and 1.784 nmol
[1]; 50 μM compound
  ATP consumed: 1.865 nmol and 1.744 nmol and 1.853 nmol
[1]; 100 μM compound
  ATP consumed: 1.867 nmol and 1.844 nmol and 1.895 nmol
[2]; EC50 (μM) (95% CI), WT VCP without UN, 50 nM VCP, 62.5 μM ATP, 2% DMSO
  EC50: 2.41 µM
[2]; 0.78 μM compound
  ATP consumed: 1.347 nmol and 0.994 nmol and 1.148 nmol
[2]; 1.56 μM compound
  ATP consumed: 1.354 nmol and 1.059 nmol and 1.210 nmol
[2]; 3.13 μM compound
  ATP consumed: 1.498 nmol and 1.151 nmol and 1.481 nmol
[2]; 6.25 μM compound
  ATP consumed: 1.483 nmol and 1.304 nmol and 1.494 nmol
[2]; 12.5 μM compound
  ATP consumed: 1.656 nmol and 1.339 nmol and 1.428 nmol
[2]; 25 μM compound
  ATP consumed: 1.637 nmol and 1.369 nmol and 1.624 nmol
[2]; 50 μM compound
  ATP consumed: 1.715 nmol and 1.360 nmol and 1.703 nmol
[2]; 100 μM compound
  ATP consumed: 1.794 nmol and 1.361 nmol and 1.605 nmol
[2]; in vitro validation of 106 screen hits
  recombinant WT VCP ATPase activity: significantly increased
[2]; maximum, WT VCP without UN
  increase of VCP activity: 50%
[3]; 62.5 μM ATP, increasing concentrations of compound
  luciferase activity (measured ATP without VCP): did not inhibit luciferase activity
[3]; compound 6.25 μM
  measured ATP consumed (nmol) without VCP: 3.401 nmol and 3.236 nmol and 3.539 nmol and 3.366 nmol and 3.357 nmol and 3.469 nmol and 3.543 nmol and 3.577 nmol and 3.421 nmol and 3.118 nmol and 3.388 nmol
[3]; compound 12.5 μM
  measured ATP consumed (nmol) without VCP: 3.307 nmol and 3.430 nmol and 3.284 nmol and 3.618 nmol and 3.378 nmol and 3.515 nmol and 3.417 nmol and 3.480 nmol and 3.503 nmol and 3.589 nmol and 3.525 nmol and 3.323 nmol
[3]; compound 25 μM
  measured ATP consumed (nmol) without VCP: 3.304 nmol and 3.386 nmol and 3.409 nmol and 3.378 nmol and 3.414 nmol and 3.361 nmol and 3.370 nmol and 3.512 nmol and 3.476 nmol and 3.518 nmol and 3.523 nmol and 3.257 nmol
[3]; compound 50 μM
  measured ATP consumed (nmol) without VCP: 3.338 nmol and 3.481 nmol and 3.508 nmol and 3.447 nmol and 3.274 nmol and 3.450 nmol and 3.266 nmol and 3.477 nmol and 3.478 nmol and 3.313 nmol and 3.466 nmol and 3.330 nmol
[3]; compound 100 μM
  measured ATP consumed (nmol) without VCP: 3.162 nmol and 3.374 nmol and 3.402 nmol and 3.401 nmol and 3.130 nmol and 3.262 nmol and 3.295 nmol and 3.438 nmol and 3.458 nmol and 3.582 nmol and 3.728 nmol and 3.332 nmol
[4]
  ATPase activity, nmol Pi / nmol VCP / s: 1.189 nmol Pi / nmol VCP / s and 1.361 nmol Pi / nmol VCP / s and 1.473 nmol Pi / nmol VCP / s
[5]; 25 μM activator
  kcat (nmol Pi / nmol VCP / s) (95% CI): 0.356 (0.320, 0.396) nmol Pi / nmol VCP / s
[5]; 25 μM activator, versus DMSO
  increase in kcat: more than 50%
[5]; [ATP] 62.5 μM
  ATPase activity v0/ET: 0.191 nmol Pi / nmol VCP / s and 0.186 nmol Pi / nmol VCP / s and 0.163 nmol Pi / nmol VCP / s
[5]; [ATP] 125 μM
  ATPase activity v0/ET: 0.237 nmol Pi / nmol VCP / s and 0.241 nmol Pi / nmol VCP / s and 0.210 nmol Pi / nmol VCP / s
[5]; [ATP] 250 μM
  ATPase activity v0/ET: 0.277 nmol Pi / nmol VCP / s and 0.260 nmol Pi / nmol VCP / s and 0.266 nmol Pi / nmol VCP / s
[5]; [ATP] 500 μM
  ATPase activity v0/ET: 0.330 nmol Pi / nmol VCP / s and 0.296 nmol Pi / nmol VCP / s and 0.298 nmol Pi / nmol VCP / s
[5]; [ATP] 1000 μM
  ATPase activity v0/ET: 0.372 nmol Pi / nmol VCP / s and 0.331 nmol Pi / nmol VCP / s and 0.333 nmol Pi / nmol VCP / s
[6]
  ATPase activity, nmol Pi / nmol VCP / s: 1.332 nmol Pi / nmol VCP / s and 1.432 nmol Pi / nmol VCP / s and 1.240 nmol Pi / nmol VCP / s
[7]
  ATPase activity, nmol Pi / nmol VCP / s: 1.493 nmol Pi / nmol VCP / s and 1.756 nmol Pi / nmol VCP / s and 2.037 nmol Pi / nmol VCP / s
[8]; 5μM compound with CHX
  Integrated Fluorescence WT (Normalized to CHX): 0.937 and 0.971 and 1.133 and 0.982 and 1.082 and 0.863
[8]; 20μM compound with CHX
  Integrated Fluorescence WT (Normalized to CHX): 1.023 and 1.038 and 1.143 and 1.051 and 0.869 and 0.804
[8]; MG132, then CHX with 5 or 20 μM activator
  clearance of GFP-TDP-4FL aggregates (integrated fluorescence): did not have a significant effect

## CC[C@H](C)[C@H](NC(=O)[C@H]([C@@H](C)CC)N(C)C(C)=O)C(=O)N[C@H](C(=O)N[C@@H](CC(C)C)C(=O)[C@@]1(C)CO1)[C@@H](C)O [epoxomicin]
[9]
  TDP-4FL inclusion size and morphology upon proteasome inhibition: generating larger TDP-4FL inclusions

## CC(C)C[C@H](NC(=O)CNC(=O)c1cc(Cl)ccc1Cl)B(O)O [ixazomib]
[9]
  TDP-4FL inclusion size and morphology upon proteasome inhibition: generating larger TDP-4FL inclusions

## Cc1cc2c(C(N)=O)cccc2n1-c1nc2c(c(NCc3ccccc3)n1)COCC2 [CB5083]
[9]
  TDP-4FL aggregate formation: no effect on TDP-4FL aggregate formation
  TDP-4FL inclusion morphology after recovery: residual irregularly shaped intranuclear TDP-4FL aggregates
